The target in this experiment is T1, Microphthalmia-associated transcription factor (Homo sapiens, UniProt O75030).
T1 sequence (O75030 whole entry): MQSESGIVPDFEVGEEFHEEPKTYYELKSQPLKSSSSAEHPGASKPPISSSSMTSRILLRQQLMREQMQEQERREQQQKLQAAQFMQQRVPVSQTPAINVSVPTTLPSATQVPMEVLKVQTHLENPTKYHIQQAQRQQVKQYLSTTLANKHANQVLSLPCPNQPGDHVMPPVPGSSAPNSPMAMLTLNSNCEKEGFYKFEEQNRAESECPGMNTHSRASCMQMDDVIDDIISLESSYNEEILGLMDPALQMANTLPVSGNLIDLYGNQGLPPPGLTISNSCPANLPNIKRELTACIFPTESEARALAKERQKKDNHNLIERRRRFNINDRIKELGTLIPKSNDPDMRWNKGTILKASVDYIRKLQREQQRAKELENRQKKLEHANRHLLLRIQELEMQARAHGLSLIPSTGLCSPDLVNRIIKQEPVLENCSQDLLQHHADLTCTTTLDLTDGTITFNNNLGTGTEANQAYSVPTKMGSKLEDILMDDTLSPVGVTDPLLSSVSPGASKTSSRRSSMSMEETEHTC
Briefly: TRPM1 promoter luciferase signal decrease, dose response, MITF inhibitor project, cell-based, SK-MEL-5, cherry-picked, set 3 (AID 493073). It is filed as functional.

The source made the active and inactive calls. No rule for the calls is given here.

The source of these data is ChEMBL document CHEMBL1201862, “PubChem BioAssay data set” (2004).

As usually defined, the AC50 is the concentration giving half of the maximal activity seen.

`O=C(Cc1ccccc1)NCC(=O)N/N=C/c1ccc([N+](=O)[O-])s1`: the AC50 is 16.1 µM (active).

As to `COc1cccc(C(=O)Nc2ccc3c(cc2=O)[C@@H](NC(C)=O)CCc2cc(OC)c(OC)c(OC)c2-3)c1`, the AC50 is 8.43 µM (active).
